From article PMC5744064, “Regulation of Class A β-Lactamase CzoA by CzoR and IscR in Comamonas testosteroni S44” (Frontiers in Microbiology, 2017)
In brackets after ≈: the same amount, converted by molar mass.

These molecules were tested on T1, C. testosteroni S44 (assay: organism not typed). Conditions: wild-type S44, MH broth.
T1 construct: S44
Parameters: species or system Comamonas testosteroni S44; Broth dilution MIC in Mueller-Hinton broth, bacterial growth inhibition (CLSI)
Protocol: Minimal inhibitory concentration profiles of the recombinant E. coli DH5α ([Miller and Mekalanos, 1988]) expressing czoA (pCT-Zori::czoA) and the isogenic strains of C. testosteroni S44 (S44, ΔczoR, ΔczoR-C, ΔiscR, and ΔiscR-C) were determined by the broth dilution method ([Clinical and Laboratory Standards Institute, 2014]) using 11 β-lactams. For the recombinant E. coli DH5α, two β-lactamase inhibitors, clavulanic acid, and tazobactam were also tested. E. coli DH5α (pCT-Zori) was used as a control. Clavulanic acid and tazobactam were generally fixed at a concentration of 2 and 4 μg/ml, respectively ([Girlich et al., 2007]; [Naas et al., 2007]; [Lamoureaux et al., 2013]; [Clinical and Laboratory Standards Institute, 2014]). Moreover, growth tendency of the isogenic strains of S44 under stress of 11 β-lactams with concentration below MIC was evaluated through OD600 values. Isogenic strains of C. testosteroni S44 in exponential growth phase were inoculated with each of 11 β-lactams in MH medium at 37°C and OD600 values were determined using a spectrophotometer after growth for 24 h. Bacterial strains, plasmids, and [compound left out] primers used in this study are shown in Supplementary Table S1. All strains were grown at 37°C in Luria-Bertani (LB, Oxoid, United Kingdom) broth unless otherwise stated. Mueller-Hinton (MH, Beijing Land Bridge Technology, China) broth dilution was used to determine the minimal inhibitory concentration (MIC) of antibiotics. Antibiotic disk (Hangzhou Microbial Reagent, China) diffusion tests were used for the antibiotic susceptibility assay (cephalexin and cefazolin). […] Then, the seed [compound left out] was used directly in relevant experiments.

Compound	MIC [µg/mL]
CC1(C)S[C@@H]2[C@H](NC(=O)[C@H](N)c3ccccc3)C(=O)N2[C@H]1C(=O)O [Ampicillin]	> 2050
CC1(C)S[C@@H]2[C@H](NC(=O)Cc3ccccc3)C(=O)N2[C@H]1C(=O)O [Benzylpenicillin]	> 2050
CC1=C(C(=O)O)N2C(=O)[C@@H](NC(=O)[C@H](N)c3ccccc3)[C@H]2SC1 [Cefalexin]	> 1020
Cc1nnc(SCC2=C(C(=O)O)N3C(=O)[C@@H](NC(=O)Cn4cnnn4)[C@H]3SC2)s1 [Cefazolin]	> 2050
CO/N=C(\C(=O)N[C@@H]1C(=O)N2C(C(=O)[O-])=C(C[N+]3(C)CCCC3)CS[C@H]12)c1csc(N)n1 [Cefepime]	> 512
C[C@@H](O)[C@H]1C(=O)N2C(C(=O)O)=C(SCCNC=N)C[C@H]12 [Imipenem]	8 (≈ 26.7 µM)
C[C@@H](O)[C@H]1C(=O)N2C(C(=O)O)=C(S[C@@H]3CN[C@H](C(=O)N(C)C)C3)[C@H](C)[C@H]12 [Meropenem]	1 (≈ 2.61 µM)

Second part, the molecule after the results:

MIC [µg/mL]	Compound
128 (≈ 299 µM)	CO[C@@]1(NC(=O)Cc2cccs2)C(=O)N2C(C(=O)O)=C(COC(N)=O)CS[C@@H]21 [Cefoxitin]
128 (≈ 234 µM)	CC(C)(O/N=C(\C(=O)N[C@@H]1C(=O)N2C(C(=O)[O-])=C(C[n+]3ccccc3)CS[C@H]12)c1csc(N)n1)C(=O)O [Ceftazidime]
> 1020	CO/N=C(\C(=O)N[C@@H]1C(=O)N2C(C(=O)O)=C(CSc3nc(=O)c(=O)[nH]n3C)CS[C@H]12)c1csc(N)n1 [Ceftriaxone]
> 128	CO/N=C(\C(=O)N[C@@H]1C(=O)N2C(C(=O)O)=C(COC(N)=O)CS[C@H]12)c1ccco1 [Cefuroxime]
